assay: Human HepG2 cell viability assay in 384 well format; assay type: toxicity, cell-based; parameters: dose 125 nL, time 70.5 hour; concentration not given beside the values; conditions: HepG2 cells, read-out: Inhibition

Row | SMILES | cytotoxicity at 70.5 h
1 | O=C(NCCc1cccs1)[C@]12COC[C@H]1CN(C1CCOCC1)C2 | -6.34%
2 | CN(C)CC1CN(Cc2coc(-c3ccccc3Cl)n2)CCO1 (stereo unspecified) | 7.1%
3 | O=C(Cn1nc(-c2ccc(F)cc2)oc1=O)NCc1ccc(F)cc1 | 30.8%
4 | O=C(NCCN1CCCCC1=O)C1CCC(=O)N(C2CCCC2)C1 (stereo unspecified) | -3.21%
5 | Cn1ccnc1CC1CCCN(C(=O)Nc2cccn(C)c2=O)C1 (stereo unspecified) | -2.41%
6 | CC1CCN(C)c2ccccc2N1C(=O)c1ccc(=O)n(C)c1 (stereo unspecified) | -6.14%
7 | O=C(Cc1cccnc1)NCCSc1ccccc1F | -11.1%
8 | CS(=O)(=O)N1C[C@@H]2CCN(C(=O)c3cscn3)[C@@H]2C1 | -2.23%
9 | CNC(=O)C1CN(c2ncccn2)CCN1Cc1ccccc1 (stereo unspecified) | -3.64%
10 | CCC(C(=O)NC(C)(C)C)n1cccc(OC)c1=O (stereo unspecified) | -10.3%
11 | CCN1CCC(CC(=O)NCCc2nc(N)cc(O)n2)CC1 | -2.8%
12 | O=C(c1ccc2[nH]nnc2c1)N1CCC(Nc2cccnn2)CC1 | 10.7%
13 | COc1ccc(OC)c(S(=O)(=O)NCC2(OC)CCSC2)c1 (stereo unspecified) | -7.48%
14 | N#CC1C(=O)Nc2c(cnn2C2CCCC2)C12CCCC2 (stereo unspecified) | -2.82%
15 | CCCS(=O)(=O)N1CC[C@H]2O[C@H](c3nnc(C)o3)CC[C@H]21 | 11.3%
16 | CCN1CC2(CCN(C(=O)C(C)Oc3cccc(Cl)c3)CC2)OC1=O (stereo unspecified) | -11.6%
17 | O=C(CN(Cc1ccccc1)CC1CCOCC1)Nc1nccs1 | -0.217%
18 | CSC(C)CCN(Cc1ccccn1)Cc1sccc1C (stereo unspecified) | -4.96%
19 | CCOc1cc2c(cc1C(=O)O)CCC2 | 11.4%
20 | Cc1ccc(CN(C)C(=O)CN2CC(n3cccn3)C2)o1 | 23.5%
21 | O=C1Nc2ccccc2/C1=C1\CCCCN1 | -10.3%
22 | CCc1n[nH]c(C2CN(C(=O)c3nc(C)ncc3Cl)CCO2)n1 (stereo unspecified) | -7.75%
23 | CC1CCCN(C(=O)c2cc(-c3ccco3)cs2)C1 (stereo unspecified) | -14.8%

Row | SMILES | cytotoxicity at 70.5 h
24 | Cc1ccc(CNc2ccccc2-n2ccc(C)n2)nc1 | 8.61%
25 | CCOCc1ccc(CNC(=O)N2CCC(C(N)=O)C2)cc1 (stereo unspecified) | -2.39%
26 | O=C(Cn1cccnc1=O)NC(Cc1cccs1)c1ccccn1 (stereo unspecified) | -13.9%
27 | CN(C)CCN1CCOC2(CCN(c3nccs3)CC2)c2ccccc21 | 28.7%
28 | Cc1ccc(CN2CCC3(CC2)C(=O)Nc2ccccc23)s1 | -7.74%
29 | Cn1cc(NC(=O)c2cc[nH]n2)cc(Cl)c1=O | -5.18%
30 | Cc1ccc(C(C)N(C)Cc2nc3c(cnn3C)c(=O)[nH]2)c(C)c1 (stereo unspecified) | -4.81%
31 | CC(C)C1CN(C(=O)c2cc(=O)[nH]c(=O)[nH]2)CCC(=O)N1CC1CC1 (stereo unspecified) | -2.3%
32 | Cn1cccc1C(=O)N[C@@H]1CN(Cc2cccs2)[C@@H]2COC[C@@H]21 | -3.46%
33 | Cc1ncc(CNc2ccc(C(=O)NCc3ccco3)cc2C)s1 | 1.95%
34 | CCC[C@H]1CN(c2cncc(C(=O)N3CCCCC3)n2)C[C@@H]1N(C)C | -3.35%
35 | c1cnc(N2Cc3nccn3CC(COc3cccnc3)C2)nc1 (stereo unspecified) | -8.37%
36 | O=C(NCCSC1CCCC1)c1ccc(F)cc1F | -5.35%
37 | O=C(NCCc1nnc2n1CCC2)N(Cc1ccco1)C1CCCC1 | -6.25%
38 | Cn1cccc1CNC(=O)N(CCO)C1CCCc2ccccc21 (stereo unspecified) | 7.35%
39 | CCc1nc(CNc2cc(Cl)ccc2OCC2CCCO2)no1 (stereo unspecified) | -8.62%
40 | Cc1ccc(C(=O)NCCCN2CCOCC2)c(Cl)c1 | -6.07%
41 | CCc1ccc(CN(C)C(=O)C2CC(=O)N(c3cccc(O)c3)C2)nc1 (stereo unspecified) | -0.196%
42 | CC(C)(C)C(CCO)NC(=O)Nc1ccccc1 (stereo unspecified) | -9.49%
43 | Cc1ccccc1CSc1nc(N)cc(N2CCOC(C(N)=O)C2)n1 (stereo unspecified) | 1.56%
44 | COCC(=O)Nc1ccc(C)cc1-c1nc(C2CC2)no1 | -7.26%
45 | CCOc1cccc(CCNC(=O)Cc2cccc(O)c2)n1 | -7.71%
46 | Cc1ccc(C)c(CN2CCCn3nc(CNS(C)(=O)=O)cc3C2)c1 | 15.4%

Reference: ChEMBL document CHEMBL3507680, “University of Dundee, Gates Library screen for HepG2 cell viability”
